Assay results published in patent US20250179078A1, “INHIBITORS OF NLRP3” (PTC THERAPEUTICS, INC., priority 2022, published 2025).

Target: T1, NLRP3 (Homo sapiens, UniProt Q96P20)
T1 construct: host or cells: THP-1 cells differentiated with PMA
Assay: IL-1β Secretion Assay (NLRP3-dependent IL1β secretion in THP1 cells)
Format: cell-based
Conditions: PMA-differentiated THP-1 cells; compounds incubated 20 h; 2.5 μM Nigericin 3 h; HTRF IL-1β readout; read-out: IC50 IL-1β Inhibition
In short: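 IL-1β in conditioned media, measured by HTRF after 3 h 2.5 μM nigericin stimulation, gave % inhibition fitted logistically for IC50. Before that, PMA-differentiated (100 ng/mL, 24 h) THP-1 cells were preincubated 20 h with 7 compound concentrations (3-fold serial, DMSO 1:200).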

T1 sequence (Q96P20 whole entry): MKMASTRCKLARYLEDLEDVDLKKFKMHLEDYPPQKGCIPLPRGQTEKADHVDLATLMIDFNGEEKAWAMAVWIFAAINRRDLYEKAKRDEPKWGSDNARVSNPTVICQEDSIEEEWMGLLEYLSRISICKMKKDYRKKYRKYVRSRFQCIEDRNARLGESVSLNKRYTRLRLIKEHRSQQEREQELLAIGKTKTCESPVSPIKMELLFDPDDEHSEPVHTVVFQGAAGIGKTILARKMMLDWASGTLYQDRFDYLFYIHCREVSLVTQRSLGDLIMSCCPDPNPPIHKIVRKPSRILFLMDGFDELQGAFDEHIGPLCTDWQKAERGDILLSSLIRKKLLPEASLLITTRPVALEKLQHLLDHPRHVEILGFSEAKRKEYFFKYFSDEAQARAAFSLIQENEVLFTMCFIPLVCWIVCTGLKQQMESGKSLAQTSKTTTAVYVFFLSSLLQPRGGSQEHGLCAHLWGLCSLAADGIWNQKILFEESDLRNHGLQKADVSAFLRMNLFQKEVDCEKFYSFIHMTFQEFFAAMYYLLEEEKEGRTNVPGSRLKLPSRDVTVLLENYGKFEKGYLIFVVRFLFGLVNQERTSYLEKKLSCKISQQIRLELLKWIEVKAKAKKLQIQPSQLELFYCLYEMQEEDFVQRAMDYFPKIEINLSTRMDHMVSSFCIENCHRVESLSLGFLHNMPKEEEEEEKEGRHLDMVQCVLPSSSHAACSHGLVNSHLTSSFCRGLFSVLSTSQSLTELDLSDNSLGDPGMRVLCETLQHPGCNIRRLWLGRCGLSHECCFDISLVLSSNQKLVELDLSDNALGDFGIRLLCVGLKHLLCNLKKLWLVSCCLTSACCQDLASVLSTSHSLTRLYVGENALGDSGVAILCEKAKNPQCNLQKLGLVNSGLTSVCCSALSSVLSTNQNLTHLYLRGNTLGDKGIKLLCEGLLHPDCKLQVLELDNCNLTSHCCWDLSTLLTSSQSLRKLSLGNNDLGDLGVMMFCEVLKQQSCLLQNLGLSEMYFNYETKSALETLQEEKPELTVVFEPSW

SMILES	IC50 [nM]
FC(F)Oc1cc(C(F)(F)F)ccc1-c1nnc(N[C@@H]2CCCNC2)n2cccc12 [Compound 35, 1-[2-(difluoromethoxy)-4-(trifluoromethyl)phenyl]-N-[(3R)-piperidin-3-yl]pyrrolo[1,2-d][1,2,4]triazin-4-amine]	10 to 100
COc1ccc(-c2nnc(N[C@@H]3CCCC[C@H]3O)n3cncc23)c(C2CC2)c1 [Compound 321, (1R,2R)-2-{[1-(2-cyclopropyl-4-methoxyphenyl)imidazo[1,5-d][1,2,4]triazin-4-yl]amino}cyclohexan-1-ol]	10 to 100
CCN1C[C@H](F)C[C@@H](Nc2nnc(-c3ccc(Br)cc3C(F)(F)F)c3cncn23)C1 [Compound 205, 1-[4-bromo-2-(trifluoromethyl)phenyl]-N-[(3R,5R)-1-ethyl-5-fluoropiperidin-3-yl]imidazo[1,5-d][1,2,4]triazin-4-amine]	10 to 100
COc1ccc(-c2nnc(N[C@H]3C[C@@](C)(O)C3)n3cncc23)c(OC(F)F)c1 [Compound 226, (1s,3s)-3-({1-[2-(difluoromethoxy)-4-methoxyphenyl]imidazo[1,5-d][1,2,4]triazin-4-yl}amino)-1-methylcyclobutan-1-ol]	10 to 100
COc1ccc(-c2nnc(N[C@@H]3CCCC[C@H]3O)n3cncc23)c(C(F)(F)C(F)(F)F)c1 [Compound 316, (1R,2R)-2-({1-[4-methoxy-2-(pentafluoroethyl)phenyl]imidazo[1,5-d][1,2,4]triazin-4-yl}amino)cyclohexan-1-ol]	10 to 100
COc1ccc(-c2nnc(N[C@H]3CCC[C@@H](CO)C3)n3cccc23)c(OC(F)F)c1 [Compound 176, [(1R,3S)-3-({1-[2-(difluoromethoxy)-4-methoxyphenyl]pyrrolo[1,2-d][1,2,4]triazin-4-yl}amino)cyclohexyl]methanol]	10 to 100
O[C@@H]1CCCCC[C@H]1Nc1nnc(-c2ccc(C(F)(F)F)cc2CC(F)(F)F)c2cccn12.O[C@H]1CCCCC[C@@H]1Nc1nnc(-c2ccc(C(F)(F)F)cc2CC(F)(F)F)c2cccn12 [Compound 127, (1R,2R)-2-({1-[2-(2,2,2-trifluoroethyl)-4-(trifluoromethyl)phenyl]pyrrolo[1,2-d][1,2,4]triazin-4-yl}amino)cycloheptan-1-ol AND (1S,2S)-2-({1-[2-(2,2,2-trifluoroethyl)-4-(trifluoromethyl)phenyl]pyrrolo[1,2-d][1,2,4]triazin-4-yl}amino)cycloheptan-1-ol]	10 to 100
CN(C)C1CCCN(c2nnc(-c3ccc(C(F)(F)F)cc3C(F)(F)F)c3cccn23)C1 (centres unmarked) [Compound 7, 1-{1-[2,4-bis(trifluoromethyl)phenyl]pyrrolo[1,2-d][1,2,4]triazin-4-yl}-N,N-dimethylpiperidin-3-amine]	10 to 100
COc1ccc(-c2nnc(NC[C@H](C)O)n3cccc23)c(OC(F)(F)F)c1 [Compound 65, (2S)-1-({1-[4-methoxy-2-(trifluoromethoxy)phenyl]pyrrolo[1,2-d][1,2,4]triazin-4-yl}amino)propan-2-ol]	10 to 100
C[C@]1(O)C[C@@H](Nc2nnc(-c3ccc(Br)cc3C(F)(F)F)c3cncn23)C1 [Compound 204, (1s,3s)-3-({1-[4-bromo-2-(trifluoromethyl)phenyl]imidazo[1,5-d][1,2,4]triazin-4-yl}amino)-1-methylcyclobutan-1-ol]	1 to 10
COc1ccc(-c2nnc(Nc3cc[nH]n3)n3cncc23)c(OC(F)F)c1 [Compound 227, 1-[2-(difluoromethoxy)-4-methoxyphenyl]-N-(1H-pyrazol-3-yl)imidazo[1,5-d][1,2,4]triazin-4-amine]	10 to 100
COc1cc(F)c(-c2nnc(N[C@@H]3CCCN(C)C3)n3cccc23)c(C2CC2)c1 [Compound 75, 1-(2-cyclopropyl-6-fluoro-4-methoxyphenyl)-N-[(3R)-1-methylpiperidin-3-yl]pyrrolo[1,2-d][1,2,4]triazin-4-amine]	1 to 10
COc1ccc(-c2nnc(NC[C@H]3CCCO3)n3cccc23)c(OC(F)(F)F)c1 [Compound 73, 1-[4-methoxy-2-(trifluoromethoxy)phenyl]-N-{[(2R)-oxolan-2-yl]methyl}pyrrolo[1,2-d][1,2,4]triazin-4-amine]	10 to 100
COc1ccc(-c2nnc(N[C@@H]3CCCN(C)C3)n3cccc23)c(C)c1 [Compound 26, 1-(4-methoxy-2-methylphenyl)-N-[(3R)-1-methylpiperidin-3-yl]pyrrolo[1,2-d][1,2,4]triazin-4-amine]	10 to 100
COc1ccc(-c2nnc(Nc3cc[nH]n3)n3cccc23)c(C2CC2)c1 [Compound 105, 1-(2-cyclopropyl-4-methoxyphenyl)-N-(1H-pyrazol-3-yl)pyrrolo[1,2-d][1,2,4]triazin-4-amine]	100 to 300

Results, then the compound that gave them:

IC50 [nM]	SMILES
1 to 10	CN1CCC[C@@H](Nc2nnc(-c3ccc(Br)cc3C(F)(F)F)c3cncn23)C1 [Compound 200, 1-[4-bromo-2-(trifluoromethyl)phenyl]-N-[(3R)-1-methylpiperidin-3-yl]imidazo[1,5-d][1,2,4]triazin-4-amine]
1 to 10	C[C@]1(O)C[C@@H](Nc2nnc(-c3ccc(C(F)(F)F)cc3OC(F)F)c3cncn23)C1 [Compound 187, (1s,3s)-3-({1-[2-(difluoromethoxy)-4-(trifluoromethyl)phenyl]imidazo[1,5-d][1,2,4]triazin-4-yl}amino)-1-methylcyclobutan-1-ol]
1 to 10	CCc1ccc(-c2nnc(N[C@@H]3CCCN(C)C3)n3cccc23)c(OC(F)(F)F)c1 [Compound 42, 1-[4-ethyl-2-(trifluoromethoxy)phenyl]-N-[(3R)-1-methylpiperidin-3-yl]pyrrolo[1,2-d][1,2,4]triazin-4-amine]
< 1	CN1CC[C@@H](O)[C@@H](Nc2nnc(-c3ccc(OC(F)F)cc3OC(F)(F)F)c3cccn23)C1 [Compound 170, (3S,4R)-3-({1-[4-(difluoromethoxy)-2-(trifluoromethoxy)phenyl]pyrrolo[1,2-d][1,2,4]triazin-4-yl}amino)-1-methylpiperidin-4-ol]
1 to 10	CN1CCCC(Nc2nnc(-c3ccc(C(F)(F)F)cc3CC(F)(F)F)c3cncn23)C1=O (centres unmarked) [Compound 329, 1-methyl-3-({1-[2-(2,2,2-trifluoroethyl)-4-(trifluoromethyl)phenyl]imidazo[1,5-d][1,2,4]triazin-4-yl}amino)piperidin-2-one]
1 to 10	C[C@]1(O)C[C@@H](Nc2nnc(-c3ccc(C(F)(F)F)cc3C(F)(F)F)c3ccnn23)C1 [Compound 4, (1s,3s)-3-({4-[2,4-bis(trifluoromethyl)phenyl]pyrazolo[1,5-d][1,2,4]triazin-7-yl}amino)-1-methylcyclobutan-1-ol]
1 to 10	O=C1NCCC1Nc1nnc(-c2ccc(C(F)(F)F)cc2C2CC2)c2cncn12 (centres unmarked) [Compound 333, 3-({1-[2-cyclopropyl-4-(trifluoromethyl)phenyl]imidazo[1,5-d][1,2,4]triazin-4-yl}amino)pyrrolidin-2-one]
1 to 10	CN1CCC[C@@H](Nc2nnc(-c3ccc(C4CC4)cc3CC(F)(F)F)c3cncn23)C1 [Compound 352, 1-[4-cyclopropyl-2-(2,2,2-trifluoroethyl)phenyl]-N-[(3R)-1-methylpiperidin-3-yl]imidazo[1,5-d][1,2,4]triazin-4-amine]
< 1	CN1CCC[C@@H](Nc2nnc(-c3ccc(C(F)(F)F)cc3OC(F)(F)F)c3cncn23)C1 [Compound 197, N-[(3R)-1-methylpiperidin-3-yl]-1-[2-(trifluoromethoxy)-4-(trifluoromethyl)phenyl]imidazo[1,5-d][1,2,4]triazin-4-amine]
1 to 10	COc1ccc(-c2nnc(N[C@H]3C[C@@](C)(O)C3)n3cccc23)c(OC(F)(F)F)c1 [Compound 9, (1s,3s)-3-({1-[4-methoxy-2-(trifluoromethoxy)phenyl]pyrrolo[1,2-d][1,2,4]triazin-4-yl}amino)-1-methylcyclobutan-1-ol]
< 1	Cc1cc2c(-c3ccc(C4CC4)cc3OC(F)F)nnc(N[C@@H]3CCCN(C)C3)n2c1 [Compound 24, 1-[4-cyclopropyl-2-(difluoromethoxy)phenyl]-7-methyl-N-[(3R)-1-methylpiperidin-3-yl]pyrrolo[1,2-d][1,2,4]triazin-4-amine]
< 1	Cc1cc2c(-c3ccc(C4CC4)cc3OC(F)F)nnc(N[C@@H]3CCCN(C)C3)n2n1 [Compound 360, 4-[4-cyclopropyl-2-(difluoromethoxy)phenyl]-2-methyl-N-[(3R)-1-methylpiperidin-3-yl]pyrazolo[1,5-d][1,2,4]triazin-7-amine]
< 1	O[C@@H]1CCCC[C@H]1Nc1nnc(-c2ccc(C(F)(F)F)cc2CC(F)(F)F)c2cccn12 [Compound 90, (1R,2R)-2-({1-[2-(2,2,2-trifluoroethyl)-4-(trifluoromethyl)phenyl]pyrrolo[1,2-d][1,2,4]triazin-4-yl}amino)cyclohexan-1-ol]
< 1	C[C@]1(O)C[C@@H](Nc2nnc(-c3ccc(C4CC4)cc3CC(F)(F)F)c3cncn23)C1 [Compound 348, (1s,3s)-3-({1-[4-cyclopropyl-2-(2,2,2-trifluoroethyl)phenyl]imidazo[1,5-d][1,2,4]triazin-4-yl}amino)-1-methylcyclobutan-1-ol]
< 1	OC[C@H]1C[C@@H](Nc2nnc(-c3ccc(C(F)(F)F)cc3CC(F)(F)F)c3cncn23)C1 [Compound 264]
< 1	CCN1CC[C@@H](O)[C@@H](Nc2nnc(-c3ccc(OC)cc3OC(F)(F)F)c3cc(C)cn23)C1 [Compound 135, (3S,4R)-1-ethyl-3-({1-[4-methoxy-2-(trifluoromethoxy)phenyl]-7-methylpyrrolo[1,2-d][1,2,4]triazin-4-yl}amino)piperidin-4-ol]
< 1	COc1ccc(-c2nnc(N[C@@H]3CCCN(C)C3)n3cncc23)c(CC(F)(F)F)c1 [Compound 250, 1-[4-methoxy-2-(2,2,2-trifluoroethyl)phenyl]-N-[(3R)-1-methylpiperidin-3-yl]imidazo[1,5-d][1,2,4]triazin-4-amine]
